Source: ChEMBL document CHEMBL1146130, “Benzoxazole benzenesulfonamides as allosteric inhibitors of fructose-1,6-bisphosphatase” (Bioorg Med Chem Lett, 2006)

Molecular target: T1, Fructose-1,6-bisphosphatase 1 (Homo sapiens, UniProt P09467)
T1 sequence (P09467 whole entry): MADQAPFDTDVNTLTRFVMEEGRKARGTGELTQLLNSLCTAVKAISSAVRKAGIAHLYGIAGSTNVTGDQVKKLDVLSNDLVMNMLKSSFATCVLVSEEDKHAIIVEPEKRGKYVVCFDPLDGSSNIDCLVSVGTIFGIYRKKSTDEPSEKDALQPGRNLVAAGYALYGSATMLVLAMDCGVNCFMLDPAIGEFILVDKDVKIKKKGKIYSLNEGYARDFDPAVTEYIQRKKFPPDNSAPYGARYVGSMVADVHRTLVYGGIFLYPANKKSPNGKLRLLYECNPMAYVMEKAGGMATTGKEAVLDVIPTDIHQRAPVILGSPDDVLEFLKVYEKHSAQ
Test: Inhibition of human FBPase1
Conditions: not given

Point of comparison: O=S(=O)(Nc1nc2cc(Cl)ccc2o1)c1ccc(-c2ccccc2)cc1, IC50 4 µM. Against it:
- COc1cc(-c2cccc(CN)c2)c2oc(NS(=O)(=O)c3cc(Cl)ccc3Cl)nc2c1 — 1.5-fold lower, 2.6 µM
- CC(C)(C)c1ccc(S(=O)(=O)Nc2nc3cc(Cl)ccc3o2)cc1 — 6-fold higher, 24 µM
- O=S(=O)(Nc1nc2cc(Cl)ccc2o1)c1ccc(F)cc1 — within 1.5-fold, 2.8 µM
- O=[N+]([O-])c1cccc(S(=O)(=O)Nc2nc3cc(Cl)ccc3o2)c1 — 2.2-fold lower, 1.8 µM
- O=S(=O)(Nc1nc2c(I)cccc2o1)c1cc(Cl)ccc1Cl — higher, > 50 µM
- COc1cc(-c2ccc(N)cc2)c2oc(NS(=O)(=O)c3cc(Cl)ccc3Cl)nc2c1 — 3.1-fold lower, 1.3 µM
- O=S(=O)(Nc1nc2cc(Cl)ccc2o1)c1ccccc1-c1ccccc1 — within 1.5-fold, 3.8 µM
- CC(C)(C)c1ccc(COc2cccc(S(=O)(=O)Nc3nc4cc(Cl)ccc4o3)c2)cc1 — higher, > 50 µM
- O=S(=O)(Nc1nc2cc(Cl)ccc2o1)c1cccc(Cl)c1 — 3.1-fold lower, 1.3 µM
- Cc1ccc2oc(NS(=O)(=O)c3cc(Cl)ccc3Cl)nc2c1 — 1.6-fold higher, 6.4 µM
- O=S(=O)(Nc1nc2cc(Cl)ccc2o1)c1ccccc1Br — 1.6-fold higher, 6.5 µM
- CS(=O)(=O)Nc1nc2cc(Cl)ccc2o1 — higher, > 50 µM
- O=S(=O)(Nc1nc2c(C3=CCNC=C3)cccc2o1)c1cc(Cl)ccc1Cl — higher, > 50 µM
- CCCC(=O)Nc1ccc(S(=O)(=O)Nc2nc3cc(Cl)ccc3o2)cc1 — 3-fold higher, 12 µM
- O=S(=O)(Nc1nc2cc(Cl)ccc2o1)c1ccccc1-n1ccnc1 — 5.8-fold higher, 23 µM
- O=S(=O)(Nc1nc2cc(Cl)ccc2o1)c1ccc2ccccc2c1 — 1.6-fold lower, 2.5 µM
- O=S(=O)(Nc1nc2cc(Cl)ccc2o1)c1ccc2cc3ccccc3cc2c1 — within 1.5-fold, 3.4 µM
- O=S(=O)(Nc1nc2cc(-c3ccoc3)ccc2o1)c1cc(Cl)ccc1Cl — the same, 4 µM
- Cc1ccc(S(=O)(=O)Nc2nc3cc(Cl)ccc3o2)cc1 — 1.6-fold higher, 6.2 µM
- CC(C)(C)c1ccc2oc(NS(=O)(=O)c3cc(Cl)ccc3Cl)nc2c1 — 8-fold higher, 32 µM
- O=S(=O)(Nc1nc2cc(Cl)ccc2o1)c1ccccc1 — 1.9-fold higher, 7.7 µM
- N#Cc1ccccc1S(=O)(=O)Nc1nc2cc(Cl)ccc2o1 — 1.5-fold higher, 6 µM
- O=S(=O)(Nc1nc2ccc(Cl)cc2o1)c1cc(Cl)ccc1Cl — 2-fold higher, 8.1 µM
- O=S(=O)(Nc1nc2cc(Cl)ccc2o1)c1cccc(-c2ccccc2)c1 — 2.5-fold higher, 9.8 µM
- COc1cc(-c2ccc(O)cc2)c2oc(NS(=O)(=O)c3cc(Cl)ccc3Cl)nc2c1 — 2.2-fold lower, 1.8 µM
- O=S(=O)(Nc1nc2cc(Cl)ccc2o1)c1cc(Cl)ccc1Cl — within 1.5-fold, 3.4 µM
- Cc1cccc2oc(NS(=O)(=O)c3cc(Cl)ccc3Cl)nc12 — 14-fold higher, 55 µM
- Cn1cnc(S(=O)(=O)Nc2nc3cc(Cl)ccc3o2)c1 — 2.4-fold higher, 9.4 µM
- O=S(=O)(Nc1nc2cc(Br)ccc2o1)c1cc(Cl)ccc1Cl — 2.1-fold lower, 1.9 µM
- CCCCS(=O)(=O)Nc1nc2cc(Cl)ccc2o1 — higher, > 50 µM
- Cc1cccc(Cl)c1S(=O)(=O)Nc1nc2cc(Cl)ccc2o1 — higher, > 50 µM
- O=S(=O)(Nc1nc2cc(Cl)ccc2o1)c1ccc(-c2ccoc2)cc1 — 1.7-fold higher, 6.7 µM
- COc1cc(-c2cccc(O)c2)c2oc(NS(=O)(=O)c3cc(Cl)ccc3Cl)nc2c1 — 2.4-fold lower, 1.7 µM
- O=S(=O)(Nc1nc2cc(Cl)ccc2o1)c1ccc(OC(F)(F)F)cc1 — 1.9-fold higher, 7.8 µM
- O=S(=O)(Nc1nc2cc(Cl)ccc2o1)c1cccs1 — 3.2-fold higher, 13 µM
- O=S(=O)(Nc1nc2cc(Cl)ccc2o1)c1c(Cl)cccc1Cl — higher, > 50 µM
- Cc1ccc2nc(NS(=O)(=O)c3cc(Cl)ccc3Cl)oc2c1 — 2.5-fold higher, 10 µM
- COc1ccc2nc(NS(=O)(=O)c3cc(Cl)ccc3Cl)oc2c1 — 2-fold higher, 8 µM

System: not listed separately
Test: Half life in rat at 5 mg/kg, po
Assay type: ADME, organism-based
Design: dose 5 mg/kg, route oral
Conditions: in vivo

Molecule O=S(=O)(Nc1nc2cc(Cl)ccc2o1)c1ccc2ccccc2c1 has a half-life of 450 min.

System: not listed separately
Test: Plasma clearance in rat at 5 mg/kg
Assay type: ADME, organism-based
Design: dose 5 mg/kg
Conditions: not given

For O=S(=O)(Nc1nc2cc(Cl)ccc2o1)c1ccc2ccccc2c1, the clearance was 0.667 mL/min/kg.

System: not listed separately
Test: Oral bioavailability in rat at 5 mg/kg, po
Assay type: ADME, organism-based
Conditions: in vivo

In the case of O=S(=O)(Nc1nc2cc(Cl)ccc2o1)c1ccc2ccccc2c1, the bioavailability is reported as > 100%.
